# Results reported in patent US12716890B2, “Macro tissue explant, methods and uses therefor” (Massachusetts Institute of Technology, priority 2017, dated 2026).
# Like-named read-outs stand apart in the source and are kept apart here. Numbered stars: 1 amine (or outer) side, 2 acyl side, 3 side chain; on linkers, the order of the positions; unused ones are H or OH. Bridge positions count the residues as written; N and C are the ends. Peptide text beside a SMILES is read from it. X1 = O=C(CCC[*:2])[*:1]
# How the values were obtained:
# [1] = test system: intestinal tissue explant; format: in vitro ADME, pigs
# Procedure: To assemble the intestinal tissue explant system, freshly isolated intestinal tissue from the jejunum was prepared according to the described tissue dissection procedure and mounted on the manufactured interface design with a generic 96 well plate as a receiver plate (Corning® 96 well plates, clear bottom, Corning) or a UV transparent plate (Corning® 96-well UV Plates, Corning). The jejunum was identified as the region of the small intestine approximately 50 cm after the pylorus. The difference between the jejunum and ileum was determined based on anatomical location, the structural differences of the tissue, differences in blood supply, and fat deposition as well as the presence of lymphoid tissue. For the system in 384-well format, a 384 microplate with glass bottom (Greiner Sensoplate™ glass bottom multiwall plates, Sigma) were used. The tissue was then cultured in this system according to the described cultivation protocol for specific ex vivo cultivation time periods. Intestinal perfusion experiments using the system were conducted only once after 24 hours of ex vivo cultivation unless otherwise noted.
# For perfusion experiments the following set up was used: Formulation samples were prepared using a liquid handling station (Evo 150 liquid handling deck, Tecan), an automated dispenser (EL406 Combination Washer Dispenser, BioTek Instruments) was used to fill receiver 96 well plates, a microplate reader (Infinite® M1000 PRO, Tecan) was then used for spectrophotometric analysis. Specifically, formulation samples were prepared following a protocol to mix the pre-pared excipient plate 10 times, pipette the appropriate amount of excipient and dispense into a 96-well plate with the appropriate amount of compound already it in. The excipient/compound formulations were then mixed 60 times and then the appropriate amount was pipetted and dispensed onto the tissue explant. All experiments, including sample incubation, were performed at room temperature. […]
# [2] = test system: gastrointestinal tissue explants derived from either the esophagus, stomach or small intestine
# Procedure: To determine responsiveness of the intestinal tissue explant to toxins, a resazurin-based viability analysis was conducted in various segments of the gastrointestinal tract after exposure to chemicals for a 24 hour time period. Resazurin is an oxidation-reduction indicator and established viability assay for mammalian cells. […] Tissue was incubated in multiwell plates containing media in the receiver chamber and various chemicals at different concentrations in PBS in the donor chamber. After 24 hours viability was measured by resazurin-based viability analysis.
# [3] = Pharmacokinetic validation in vivo, formulation delivered to duodenum, oxytocin serum ELISA; settings: female, Yorkshire, pig, po, pigs, formulation delivered directly to the duodenum, read-out: bioavailability of oxytocin (absolute / average oral)
# Procedure: All animal procedures were conducted in accordance with protocols approved by the Massachusetts Institute of Technology Committee on Animal Care. For tissue experiments, fresh tissue was obtained from local abattoirs within 20 minutes of euthanization.
# Pharmacokinetic validation was performed in vivo. Female Yorkshire pigs between 45 and 50 kg in weight were used. Before every experiment, the animals were fasted overnight and on the day of the procedure, the morning feed was held. The animals were sedated with an intramuscular injection of Telazol (tileramine/zolazepam) 5 mg/kg, xylazine 2 mg/kg and atropine 0.04 mg/kg. The duodenum was accessed endoscopically and the formulation directly delivered to the duodenum. Serial blood sampling from the peripheral veins was performed for quantification of oxytocin. For oxytocin serum quantification, an Oxytocin ELISA kit (Cat. no. ab133050, Abcam) was used according to the manufacturer's protocol. […] To investigate the mechanism of absorption enhancement and to analyze potential local effects of the formulation on the small intestine histologically, a surgical procedure coupled with custom-made devices was developed, that enabled controlled exposure of the formulation on a defined area of the intestinal tissue. E-cadherin stained sections of biopsy samples were used to analyze the disruption of cell-cell adhesions.
# [4] = biological target: T1, MDR-1 (Sus scrofa, UniProt K7GMM7); test: Perfusion of substrate through siRNA-transfected intestinal tissue explant; format: in vitro ADME, pigs
# T1 construct: from tissue; host or cells: pig small intestine explant, cultured ex vivo
# Procedure: Specifically, siRNA was delivered to tissue explants using ultrasound by applying 5 second intervals for 1 minute for 40 kHz generated using a separate ultrasound generator (Sonics and Materials, Inc.) and a custom made 96 tip probe. The following siRNAs at concentrations of 1 μm in deionized water were used: Silencer® Select Pre-Designed siRNA (siRNA ID: s3846, Gene Symbol: CYP3A4), Silencer® Select Pre-Designed siRNA (siRNA ID: s10419, Gene Symbol: ABCB1), Silencer® Select Negative Control No. 1 siRNA.
# [5] = test system: GLP-1 (7-36); test: GLP-1 stimulation of intestinal tissue explant, ELISA of GLP-1 (7-36); format: cell-based, pigs; settings: varying doses for 24 hours
# Procedure: As determined in Example 1, the intestinal tissue explant comprises endocrine cells, determined by the expression of […] and Glucagon-like peptide-1 (GLP-1). Therefore, the ability of the intestinal tissue explant to respond to known GLP-1 stimulants was investigated. Specifically, acetylcholine, LiCl, and glucose were added to the intestinal tissue explant at varying doses for 24 hours, then cells within the apical side of the intestinal epithelium were isolated. The concentration of active cleaved peptide of GLP-1 (GLP-1 (7-36)) of these cell lysates was determined by ELISA analysis. […] The stimulation of GLP-1 secretion by acetylcholine, LiCl and glucose, which act through different pathways, indicated these pathways were intact in the intestinal tissue explant. The Acetylcholine and LiCl act as non-nutrient stimulators of GLP-1 that are reported to simulate GLP-1 activity via neuronal regulation. Glucose triggers GLP-1 activity via nutrient-based pathways.
# T1 sequence (K7GMM7 1-1248): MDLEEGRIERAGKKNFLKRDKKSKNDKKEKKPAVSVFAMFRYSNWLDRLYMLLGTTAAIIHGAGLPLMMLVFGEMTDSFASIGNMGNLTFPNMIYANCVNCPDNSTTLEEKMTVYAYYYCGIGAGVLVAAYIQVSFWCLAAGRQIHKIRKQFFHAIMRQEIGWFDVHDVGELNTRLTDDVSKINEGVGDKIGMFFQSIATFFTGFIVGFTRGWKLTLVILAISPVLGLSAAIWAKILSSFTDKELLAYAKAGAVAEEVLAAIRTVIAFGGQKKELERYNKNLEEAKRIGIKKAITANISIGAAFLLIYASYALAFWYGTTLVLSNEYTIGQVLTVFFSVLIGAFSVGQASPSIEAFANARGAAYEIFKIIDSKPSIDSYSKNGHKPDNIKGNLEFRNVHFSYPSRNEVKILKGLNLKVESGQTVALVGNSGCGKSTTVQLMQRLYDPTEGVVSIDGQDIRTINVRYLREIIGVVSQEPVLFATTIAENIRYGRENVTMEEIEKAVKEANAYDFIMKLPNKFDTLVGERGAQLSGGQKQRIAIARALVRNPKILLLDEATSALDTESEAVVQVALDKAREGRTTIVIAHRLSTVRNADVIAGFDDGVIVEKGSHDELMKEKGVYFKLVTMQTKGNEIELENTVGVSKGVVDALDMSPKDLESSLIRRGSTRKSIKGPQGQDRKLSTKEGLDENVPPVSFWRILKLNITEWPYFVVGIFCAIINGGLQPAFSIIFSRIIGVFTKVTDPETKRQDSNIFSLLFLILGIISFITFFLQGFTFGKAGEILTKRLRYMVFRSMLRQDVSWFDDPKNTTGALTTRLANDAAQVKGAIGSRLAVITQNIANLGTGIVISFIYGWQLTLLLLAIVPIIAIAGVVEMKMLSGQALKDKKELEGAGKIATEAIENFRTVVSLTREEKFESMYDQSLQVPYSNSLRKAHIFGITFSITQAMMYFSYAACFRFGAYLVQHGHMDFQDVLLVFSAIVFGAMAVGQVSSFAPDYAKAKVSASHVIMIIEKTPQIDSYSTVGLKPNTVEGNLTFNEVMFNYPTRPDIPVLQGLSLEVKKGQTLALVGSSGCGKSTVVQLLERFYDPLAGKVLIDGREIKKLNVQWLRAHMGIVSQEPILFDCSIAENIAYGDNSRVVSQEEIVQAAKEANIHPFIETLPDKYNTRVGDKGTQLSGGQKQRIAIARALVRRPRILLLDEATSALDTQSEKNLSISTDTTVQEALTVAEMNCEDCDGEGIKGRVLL
molecule,measurement,setting,value
CC[C@H](C)[C@@H]1NC(=O)[C@H](Cc2ccc(OC)cc2)NC(=O)CCCSC[C@@H](C(=O)N2CCC[C@H]2C(=O)N[C@@H](CC(C)C)C(=O)NCC(N)=O)NC(=O)[C@H](CC(N)=O)NC(=O)[C@H](CCC(N)=O)NC1=O [carbetocin] (Y(Me)IQNCPLG-NH2; linker N-5 via X1),"intestinal absorption/perfusion of model drug formulated with polyethyleneimine (800 Da, end-capped)",[1],limited increase in intestinal perfusion
CO [methanol],tissue viability,[2],dose-dependent chemically induced decrease in tissue viability
CC[C@H](C)[C@@H]1NC(=O)[C@H](Cc2ccc(O)cc2)NC(=O)[C@@H](N)CSSC[C@@H](C(=O)N2CCC[C@H]2C(=O)N[C@@H](CC(C)C)C(=O)NCC(N)=O)NC(=O)[C@H](CC(N)=O)NC(=O)[C@H](CCC(N)=O)NC1=O [oxytocin],bioavailability,[3],0.64%
C=O [formalin],tissue viability,"[2]; 24 hours exposure, different concentrations in PBS, esophagus, stomach or small intestine explants",dose-dependent chemically induced decrease in tissue viability
"Polyethyleneimine [Polyethyleneimine (800 Da, end-capped)]",intestinal perfusion of oxytocin formulated with excipient,[1],increased the intestinal perfusion of oxytocin several fold
CNC(=C[N+](=O)[O-])NCCSCc1ccc(CN(C)C)o1 [ranitidine],perfusion after knock-down of MDR-1,[4],significant change of perfusion
Alexa488-insulin: human insulin (recombinant) labeled with Alexa Fluor 488 NHS Ester,"intestinal absorption/perfusion of model drug formulated with polyethyleneimine (800 Da, end-capped)",[1],increase the intestinal absorption to various degrees
CCO [ethanol],tissue viability,[2],dose-dependent chemically induced decrease in tissue viability
[Cl-].[Li+] [LiCl],concentration of GLP-1 (7-36) in cell lysates,[5],increased concentration so of GLP-1 (7-36) in a dose-dependent manner
